Results on nine molecules are retold here after US20040204463A1, “N-aryl-2-oxazolidinone-5-carboxamides and their derivatives” (priority 2003, published 2004).

Converted amounts (≈) assume the structure as drawn. Where only a bound is given, the exact number is not on record here.

Assay [1] has as its system SPNE 9912. The experiment in a line: In vitro MIC by standard agar dilution method, SPNE 9912. To be noted: agar dilution, Mueller Hinton agar, incubated overnight at 35° C.; lowest concentration that inhibits visible growth; read-out: SPNE 9912 MIC (Minimum Inhibitory Concentration). Format: cell-based. The source says: (§1) The oxazolidinone antibacterial agents of this invention have useful activity against a variety of organisms. The in vitro activity of compounds of this invention can be assessed by standard testing procedures such as the determination of minimum inhibitory concentration (MIC) by agar dilution as described in “Approved Standard. Methods for Dilution Antimicrobial Susceptibility Tests for Bacteria That Grow Aerobically”, 3rd. ed., published 1993 by the National Committee for Clinical Laboratory Standards, Villanova, Pa., USA.
(§2) The in vitro MICs of test compounds were determined by a standard agar dilution method. A stock drug solution of each analog was prepared in the preferred solvent, usually DMSO: H2O (1:3). Serial 2-fold dilutions of each sample are made using 1.0 ml aliquots of sterile distilled water. To each 1.0 ml aliquot of drug was added 9 ml of molten Mueller Hinton agar medium. The drug-supplemented agar was mixed, poured into 15×100 mm petri dishes, and allowed to solidify and dry prior to inoculation.
(§3) Vials of each of the test organisms are maintained frozen in the vapor phase of a liquid nitrogen freezer. Test cultures are grown overnight at 35° C. on the medium appropriate for the organism. Colonies are harvested with a sterile swab, and cell suspensions are prepared in Trypticase Soy broth (TSB) to equal the turbidity of a 0.5 McFarland standard. A 1:20 dilution of each suspension was made in TSB. The plates containing the drug supplemented agar are inoculated with a 0.001 ml drop of the cell suspension using a Steers replicator, yielding approximately 10^4 to 10^5 cells per spot. The plates are incubated overnight at 35° C.
(§4) Following incubation the Minimum Inhibitory Concentration (MIC μg/ml), the lowest concentration of drug that inhibits visible growth of the organism, was read and recorded.
In general terms: Agar dilution tests growth on a series of plates holding different concentrations.

In assay [2] the test system is SAUR 9213. The experiment in a line: In vitro MIC by standard agar dilution method, SAUR 9213. Format: cell-based, S. aureus. To be noted: Staphylococcus aureus; agar dilution, Mueller Hinton agar, incubated overnight at 35° C.; lowest concentration that inhibits visible growth; read-out: SAUR 9213 MIC (Minimum Inhibitory Concentration).
Description: as §1, §2, §3, §4

In assay [3] the test system is HINF 30063. The experiment in a line: In vitro MIC by standard agar dilution method, HINF 30063. Format: cell-based, H. influenzae. To be noted: Haemophilus influenzae; agar dilution, Mueller Hinton agar, incubated overnight at 35° C.; lowest concentration that inhibits visible growth; read-out: HINF 30063 MIC (Minimum Inhibitory Concentration).
Description: as §1, §2, §3, §4

Turning to `CC(=O)NC[C@H]1CN(c2ccc(N3CCN(C(=O)CCCCC#Cc4ccc(O)cc4)CC3)c(F)c2)C(=O)O1` [Compound 24, N-{[(5S)-3-(3-fluoro-4-{4-[7-(4-hydroxyphenyl)hept-6-ynoyl]piperazin-1-yl}phenyl)-2-oxo-1,3-oxazolidin-5-yl]methyl}acetamide], the MIC is 2 µg/mL (≈ 3.73 µM) in assay [1], 8 µg/mL (≈ 14.9 µM) in assay [2] and more than 64 µg/mL in assay [3].
For `CC(=O)NC[C@H]1CN(c2ccc(N3CCN(C(=O)CCCCC#Cc4cccc(O)c4)CC3)c(F)c2)C(=O)O1` [Compound 25, N-{[(5S)-3-(3-fluoro-4-{4-[7-(3-hydroxyphenyl)hept-6-ynoyl]piperazin-1-yl}phenyl)-2-oxo-1,3-oxazolidin-5-yl]methyl}acetamide], in that order: 2 µg/mL (≈ 3.73 µM), 8 µg/mL (≈ 14.9 µM) and more than 64 µg/mL.
Turning to `CC(=O)NC[C@H]1CN(c2ccc(N3CCN(C(=O)CCCC#Cc4ccc(CN)cc4)CC3)c(F)c2)C(=O)O1` [Compound 26, N-({(5S)-3-[4-(4-{6-[4-(aminomethyl)phenyl]hex-5-ynoyl}piperazin-1-yl)-3-fluorophenyl]-2-oxo-1,3-oxazolidin-5-yl}methyl)acetamide], the MIC in assay [1] was determined as 0.25 µg/mL (≈ 0.467 µM); in assay [2], 4 µg/mL (≈ 7.47 µM); in assay [3], 16 µg/mL (≈ 29.9 µM).
On the same counts, the results for `CC(=O)NC[C@H]1CN(c2ccc(N3CCN(C(=O)CCCC#Cc4cccc(O)c4)CC3)c(F)c2)C(=O)O1` [Compound 27, N-{[(5S)-3-(3-fluoro-4-{4-[6-(3-hydroxyphenyl)hex-5-ynoyl]piperazin-1-yl}phenyl)-2-oxo-1,3-oxazolidin-5-yl]methyl}acetamide] are 1 µg/mL (≈ 1.91 µM), 8 µg/mL (≈ 15.3 µM) and more than 64 µg/mL.
As to `CC(=O)NC[C@H]1CN(c2ccc(N3CCN(C(=O)CCC#Cc4cccc(O)c4)CC3)c(F)c2)C(=O)O1` [Compound 29, N-{[(5S)-3-(3-fluoro-4-{4-[5-(3-hydroxyphenyl)pent-4-ynoyl]piperazin-1-yl}phenyl)-2-oxo-1,3-oxazolidin-5-yl]methyl}acetamide], the MIC in assay [1] is 1 µg/mL (≈ 1.97 µM); in assay [2], 4 µg/mL (≈ 7.87 µM); in assay [3], more than 64 µg/mL.
For `CC(=O)NC[C@H]1CN(c2ccc(N3CCN(C(=O)CCC#Cc4ccc(O)cc4)CC3)c(F)c2)C(=O)O1` [Compound 30, N-{[(5S)-3-(3-fluoro-4-{4-[5-(4-hydroxyphenyl)pent-4-ynoyl]piperazin-1-yl}phenyl)-2-oxo-1,3-oxazolidin-5-yl]methyl}acetamide], in that order: 1 µg/mL (≈ 1.97 µM), 4 µg/mL (≈ 7.87 µM) and 64 µg/mL (≈ 126 µM).
For `C#CCCCCC(=O)N1CCN(c2ccc(N3C[C@H](CNC(C)=O)OC3=O)cc2F)CC1` [Compound 31, N-({(5S)-3-[3-fluoro-4-(4-hept-6-ynoylpiperazin-1-yl)phenyl]-2-oxo-1,3-oxazolidin-5-yl}methyl)acetamide], in that order: 1 µg/mL (≈ 2.25 µM), 4 µg/mL (≈ 9 µM) and 64 µg/mL (≈ 144 µM).
On the same counts, the results for `CC(=O)NC[C@H]1CN(c2ccc(N3CCN(C(=O)CCCCC#Cc4cccc(CN)c4)CC3)c(F)c2)C(=O)O1` [Compound 32, N-({(5S)-3-[4-(4-{7-[3-(aminomethyl)phenyl]hept-6-ynoyl}-piperazin-1-yl)-3-fluorophenyl]-2-oxo-1,3-oxazolidin-5-yl}methyl)acetamide] are 2 µg/mL (≈ 3.64 µM), 4 µg/mL (≈ 7.28 µM) and 64 µg/mL (≈ 116 µM).
As to `CC(=O)NC[C@H]1CN(c2ccc(N3CCN(C(=O)CCC#Cc4cccc(CN)c4)CC3)c(F)c2)C(=O)O1` [Compound 33, N-({(5S)-3-[4-(4-{5-[3-(aminomethyl)phenyl]pent-4-ynoyl}piperazin-1-yl)-3-fluorophenyl]-2-oxo-1,3-oxazolidin-5-yl}-methyl)acetamide], the MIC in assay [1] amounted to 1 µg/mL (≈ 1.92 µM); in assay [2], 4 µg/mL (≈ 7.67 µM); in assay [3], 16 µg/mL (≈ 30.7 µM).
